In patent publication US20030199516A1, “Methods of treating infection by drug resistant bacteria” (Genesoft, Inc., priority 2001, published 2003):
pKd: −log10 of the molar value.

Assays:
[1] = test system: Streptococcus pneumoniae ATCC 51422; test: NCCLS broth microdilution MIC; type: cell-based; conditions: Col. E = S. pneumoniae ATCC 51422 (PRSP)
Source text: (§1) In vitro antibacterial activity data were collected for the following Gram-positive bacteria: Staphylococcus aureus (ATCC 27660, ATCC 33591 and ATCC 43300, all methicillin resistant strains (MRSA's)); Streptococcus pneumoniae (ATCC 51422, a penicillin resistant strain (PRSP)), Enterococcus faecium (ATCC 51559, and/or a vancomycin resistant strain (VRE)). Additionally, antifungal activity data were collected for Candida albicans (ATCC 38247). Minimal inhibition concentrations (MIC's) were determined using the National Committee for Clinical Laboratory Standards (NCCLS) broth microdilution assay in microtiter plates, as set forth in: (1) the guidelines of the National Committee for Clinical Laboratory Standards (NCCLS) Document M7-A4 (NCCLS, 1997); (2) the guidelines of the National Committee for Clinical Laboratory Standards (NCCLS) Document M11-A4 (NCCLS, 1997); and (3) the guidelines and reference method of the National Committee for Clinical Laboratory Standards (NCCLS) Document M27-T (NCCLS, 1995). For antifungal essays, the method recommended in Murray, PR., 1995 Manual of Clinical Microbiology (ASM Press, Washington, D.C.), was employed.

[2] = test system: Enterococcus faecium ATCC 51559; test: NCCLS broth microdilution MIC; type: cell-based; conditions: Col. D = E. faecium ATCC 51559 (VRE)
Source text: as §1

[3] = test system: S. aureus ATCC 33591; test: NCCLS broth microdilution MIC; type: cell-based, Staphylococcus aureus; conditions: Col. B = S. aureus ATCC 33591 (MRSA)
Source text: as §1

[4] = test system: S. aureus ATCC 27660; test: NCCLS broth microdilution MIC; type: cell-based, Staphylococcus aureus; conditions: Col. A = S. aureus ATCC 27660 (MRSA)
Source text: as §1

[5] = biological target: target sequence AATTAATCAT (352 bp fragment, Plasmid C); test: Quantitative DNase I footprint titration; type: binding; conditions: 352 bp C, 22° C., pH 7.0, read-out: Dissociation Constant Kd
Source text: (§2) Compounds (1) through (20) according to this invention were screened for their ability to bind to specified DNA target sequences, using DNase I footprinting. Generally, the procedure described in Dervan, WO 98/50582 (1998), was followed.
(§3) Three double stranded circular plasmids A, B, and C were used to prepare double stranded DNA-binding probes containing the target sequences for the DNase I footprint titration experiments. Plasmids A, B, and C had nucleotide sequences given by SEQ ID NO. I, SEQ ID NO. II, and SEQ ID NO. III, respectively.
(§4) The 3′-P32 end-labeled EcoRI/PvuII fragments from each plasmid were prepared by digesting the plasmids with EcoRI and PvuII with simultaneous fill-in using Sequenase v. 2.0, [alpha-P32]-deoxyadenosine-5′-triphosphate, and [alpha-P32]-thymidine-5′-triphosphate, and isolating the cloned fragments by nondenaturing gel electrophoresis. A and G sequencing reactions were carried out as described (See Maxam and Gilbert, Methods Enzymol., 1980, 65, 499-560; Iverson and Dervan, Methods Enzymol., 1987, 15, 7823-7830; Sambrook et al., 1989, Molecular Cloning, 2nd ed., Cold Spring Harbor Laboratory Press: Cold Spring Harbor, N.Y.) Standard methods were used for all DNA manipulations (Sambrook et al., ibid.) The cut sites for EcoRI and PvuII are indicated by bars in the respective maps of Plasmids A, B, and C in FIGS. 5, 6, and 7.
(§5) The 351 base pair dsDNA restriction fragment (SEQ ID NO. IV) of Plasmid A contained the target sequences AAAAAGCAAAAA, AAAAAGACAAAAA, and AAAAAGTACAAAAA. The 310 base pair dsDNA restriction fragment (SEQ ID NO. V) of Plasmid B contained the target sequences AGTACT, AATACT, and ATTACT. The 352 base pair dsDNA restriction fragment (SEQ ID NO. VI) of Plasmid C contained the target sequences TGACAATTAAT, GACAATTAATCA, AATTAATCAT, ACAATTA, and ACAATTAAT. These fragments were used for quantitative DNase I footprinting experiments. Compounds used in the method of this invention bind to at least one of the target sites with a equal to or less than 100 nM, preferably equal to or less than 50 nM, and more preferably equal to or less than 20 nM. The target sequences were selected for the identity with, or similarity to, promoter sites for bacterial genes.
(§6) Quantitative DNase I footprint titration experiments were carried out as described previously (Dervan, WO 98/50582, 1998) with the following changes. All reactions were carried out in a total volume of 400 μL, with compound stock solution or water added to 15,000 cpm radiolabeled restriction fragment affording final solution conditions of 10 mM Tris HCl, 10 mM KCl, 10 mM MgCl2, 5 mM CaCl2, pH 7.0 and 0.01 nM, 0.1 nM, 1.0 nM, 10.0 nM compound or no compound for reference lanes. The compounds were allowed to equilbrate at 22° C. for 16 h. Footprinting reactions were initiated with addition of 10 μL of a DNase I stock solution (at the appropriate concentration to give ˜50% intact DNA) containing 1 mM DTT and allowed to proceed for 7 min at 22° C. The reactions were stopped, ethanol precipitated, resuspended in loading buffer, heat denatured, and placed on ice as described previously (Dervan WO 98/50582, 1998). The reaction products were separated on a precast 8% polyacrylamide denaturing sequencing Castaway gel with 32 preformed wells from Stratagene in 1×TBE at 2000 V. Gels were dried according to the manufacturer and exposed to a storage phosphor screen (Molecular Dynamics). Quantitation and data analysis were carried out as described in Dervan, WO 98/50582, 1998.

[6] = biological target: target sequence AGTACT (310 bp fragment, Plasmid B); test: Quantitative DNase I footprint titration; type: binding; conditions: 310 bp B, 22° C., pH 7.0, read-out: Dissociation Constant Kd
Source text: as §2, §3, §4, §5, §6

[7] = test system: Candida albicans ATCC 38247; test: Antifungal MIC; type: cell-based; conditions: Col. F = C. albicans ATCC 38247
Source text: as §1

[8] = test system: S. aureus ATCC 43300; test: NCCLS broth microdilution MIC; type: cell-based, Staphylococcus aureus; conditions: Col. C = S. aureus ATCC 43300 (MRSA)
Source text: as §1

[9] = test system: methicillin resistant Staphylococcus aureus ATCC 33591; test: Mouse protection assay; type: in vivo; conditions: balb/c mice, 50 mg/kg intravenously at 2, 8, 18 and 24 hours post infection; vehicle 14
Method: A S. aureus ATCC 33591 culture was grown to log phase overnight and diluted in phosphate buffered saline (pH 7.2) to an optical density of about 0.1 at 600 nm, giving an approximate concentration of 10^8 cfu/mL. Porcine mucin was added to the suspension to a final concentration of 5% mucin. The suspension was diluted 1:100 for a final concentration of 10^6 cfu/mL.
Female balb/c mice (20 g body weight) were injected intraperitoneally with 0.5 mL of bactenal suspension (10^6 cfu/mL). Vehicle (phosphate buffered saline, pH 7.2) or test compound were administered intravenously at 2, 8, 18, and 24 hours post infection. The animals were monitored twice daily and survival counts were recorded up to 48 hours post infection.

[10] = biological target: target sequence GACAATTAATCA (352 bp fragment, Plasmid C); test: Quantitative DNase I footprint titration; type: binding; conditions: 352 bp C, 22° C., pH 7.0, read-out: Dissociation Constant Kd
Source text: as §2, §3, §4, §5, §6

[11] = test system: methicillin resistant Staphylococcus aureus ATCC 33591; test: Murine neutropenic thigh model; type: in vivo; conditions: neutropenic CF1 mice
Method: A S. aureus ATCC 33591 culture was grown to log phase overnight and diluted in phosphate buffered saline (pH 7.2) to an optical density of about 0.1 at 600 nm, giving an approximate concentration of 10^8 cfu/mL. The suspension was diluted 1:100 in phosphate buffered saline (pH 7.2) for a final concentration of 10^6 cfu/mL.
Outbred female CFI mice (approx. 20 gram body weight) were rendered netutropenic by treatment with cyclophosphamide (200 mg/kg body weight, intraperitoneal injection) at 2 and 4 days prior to inoculation. Groups of 5 mice were inoculated with 0.05 mL of the bacteria (approx. 10^6 cfu/mL) into the anterior thigh. Each group was treated intravenously two hours post infection with vehicle (phosphate buffered saline) or test compound. The mice were sacrificed at either 6 or 24 hrs after treatment and thighs were collected aseptically. Each thigh was weighed, placed into sterile saline, and homogenized. The tissue homogenates were diluted appropriately for plating on agar plates. Colony counts were recorded (cfu/gram) and compared to control groups.

[12] = biological target: target sequence ACAATTAAT (352 bp fragment, Plasmid C); test: Quantitative DNase I footprint titration; type: binding; conditions: 352 bp C, 22° C., pH 7.0, read-out: Dissociation Constant Kd
Source text: as §2, §3, §4, §5, §6

Structure (SMILES) | Minimum Inhibitory Concentration (MIC) [1] | Minimum Inhibitory Concentration (MIC) [2] | Minimum Inhibitory Concentration (MIC) [3] | Minimum Inhibitory Concentration (MIC) [4] | pKd [5] | pKd [6] | Minimum Inhibitory Concentration (MIC) [7] [mg/L] | Minimum Inhibitory Concentration (MIC) [8] | Survival at 48 hrs [9] [%] | pKd [10] | Colony Count ([11]; 80 mg/kg intravenously 2 h post infection, 6 hr after treatment, vehicle 7.83) [log cfu/gram] | pKd [12] | Colony Count ([11]; 50 mg/kg intravenously 2 h post infection, 24 hr after treatment, vehicle 8.03) [log cfu/gram] | MIC ([4]; Staphylococcus aureus, read-out: Minimum Inhibitory Concentration (MIC)) [mg/L] | MIC ([7]; Candida albicans, ATCC38247, read-out: Minimum Inhibitory Concentration (MIC)) [mg/L]
Cn1cc(NC(=O)c2cc3ccccc3cn2)cc1C(=O)Nc1cc(C(=O)Nc2cc(C(=O)NCCN3CCOCC3)n(CCN3CCOCC3)c2)n(C)c1 [Compound 17] | ++ (++ = MIC ≦ 1) | ++ (++ = MIC ≦ 1) | − (− = MIC > 2) | ++ (++ = MIC ≦ 1) | 8.30 | > 7.00 | >32 | – | – | – | – | – | – | – | –
Cn1cc(NC(=O)c2cc(NC(=O)c3cc(NC(=O)c4sccc4Cl)cn3C)cn2C)cc1C(=O)NCCN1CCOCC1 [Compound 6] | – | ++ (++ = MIC ≦ 1) | + (+ = MIC ≦ 2) | – | 7.70 | – | >32 | − (− = MIC > 2) | 86 | – | – | – | – | – | –
Cn1cc(NC(=O)c2cc(NC(=O)c3cc(NC(=O)c4sc5ccccc5c4Cl)c[nH]3)cn2C)cc1C(=O)NCCN1CCOCC1 [Compound 9] | ++ (++ = MIC ≦ 1) | + (+ = MIC ≦ 2) | ++ (++ = MIC ≦ 1) | ++ (++ = MIC ≦ 1) | – | – | >32 | + (+ = MIC ≦ 2) | – | 10.00 | 6.17 | – | – | – | –
Cn1cc(NC(=O)c2cc(NC(=O)c3cc(NC(=O)c4cc5ccccc5cn4)cn3C)cn2C)cc1C(=O)NCCc1cccnc1 [Compound 14] | + (+ = MIC ≦ 2) | − (− = MIC > 2) | − (− = MIC > 2) | ++ (++ = MIC ≦ 1) | – | – | >32 | – | – | – | – | 8.30 | – | – | –
Cn1cc(NC(=O)c2cc3ccccc3cn2)cc1C(=O)Nc1cc(C(=O)Nc2cc(C(=O)NCCN3CCCCC3)ns2)n(C)c1 [Compound 19] | ++ (++ = MIC ≦ 1) | ++ (++ = MIC ≦ 1) | + (+ = MIC ≦ 2) | ++ (++ = MIC ≦ 1) | – | – | >32 | – | – | – | – | 9.00 | – | – | –
Cn1cc(NC(=O)c2sccc2Cl)cc1C(=O)Nc1cc(-c2nc3ccc(C(=O)NCCN4CCOCC4)cc3[nH]2)n(C)c1 [Compound 12] | ++ (++ = MIC ≦ 1) | ++ (++ = MIC ≦ 1) | − (− = MIC > 2) | ++ (++ = MIC ≦ 1) | – | – | >32 | – | – | ≥ 10.00 | – | – | 6.96 | – | –
Cn1cc(NC(=O)c2cc(NC(=O)c3cc(NC(=O)c4cc5ccccc5cn4)no3)cn2C)cc1C(=O)NCCN1CCOCC1 [Compound 20] | – | – | – | – | 8.30 | 8.00 | – | – | – | – | – | – | – | ≤ 1 | > 32
